Data as given in ChEMBL document CHEMBL1123509, “In vitro inhibition of estrogen sulfoconjugation by some 2- and 4-substituted estra-1,3,5(10)-trien-17 beta-ols1a” (J Med Chem, 1986).

These compounds were tested against T1, Estrogen sulfotransferase (Sus scrofa, UniProt Q95MF8) (assay: Compound was tested for inhibition of porcine endometrial estrogen sulfotransferase). Conditions: read-out: Ki app.
T1 sequence (Q95MF8 whole entry): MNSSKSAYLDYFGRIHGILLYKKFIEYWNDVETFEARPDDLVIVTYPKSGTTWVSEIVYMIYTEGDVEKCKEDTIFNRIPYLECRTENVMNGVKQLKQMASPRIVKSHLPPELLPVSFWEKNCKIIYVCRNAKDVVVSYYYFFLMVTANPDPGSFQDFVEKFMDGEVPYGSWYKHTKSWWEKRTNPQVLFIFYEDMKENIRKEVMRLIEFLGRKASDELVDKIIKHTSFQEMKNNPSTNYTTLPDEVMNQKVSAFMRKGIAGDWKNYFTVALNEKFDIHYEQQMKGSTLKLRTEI

SMILES	Ki
C[C@]12CC[C@@H]3c4cccc(F)c4CC[C@H]3[C@@H]1CC[C@@H]2O	10.2 µM
C[C@]12CC[C@@H]3c4cccc([N+](=O)[O-])c4CC[C@H]3[C@@H]1CC[C@@H]2O	2.43 µM
C[C@]12CC[C@@H]3c4ccccc4CC[C@H]3[C@@H]1CC[C@@H]2O	16.3 µM
C[C@]12CC[C@@H]3c4cc(N)ccc4CC[C@H]3[C@@H]1CCC2O (stereo not given in full)	7.51 µM
C[C@]12CC[C@@H]3c4cccc(F)c4CC[C@H]3[C@@H]1CCC2=O	14.8 µM
C[C@]12CC[C@@H]3c4cccc(N)c4CC[C@H]3[C@@H]1CCC2O (stereo not given in full)	11.9 µM
C[C@]12CC[C@@H]3c4cc([N+](=O)[O-])ccc4CC[C@H]3[C@@H]1CC[C@@H]2O	9.76 µM
C[C@]12CC[C@@H]3c4cccc(N)c4CC[C@H]3[C@@H]1CCC2=O	10.5 µM
C[C@]12CC[C@@H]3c4cc(F)ccc4CC[C@H]3[C@@H]1CCC2O (stereo not given in full)	13.6 µM
C[C@]12CC[C@@H]3c4ccccc4CC[C@H]3[C@@H]1CCC2=O	25.1 µM
